Experimental findings from patent US20220346382A1, “COMPOSITION FOR TREATING AND PREVENTING BACTERIAL GROWTH ON A SUBSTRATE” (PETROLIAM NASIONAL BERHAD (PETRONAS), priority 2019, published 2022) are described below.

Assay [1] concerns bacteria of produced water sample B04S. Briefly: Viable cell count from suspension cells by hemocytometer (ASTM E 2315-03). The class given is cell-based. The protocol: (§1) Formulations were prepared by mixing the listed chemical components in the stated concentrations with produced water sample BO4S in a flask (Table 1). These formulations were tested in subsequent examples for biocide activity.
In a typical procedure, a glass hemocytometer and coverslip was cleaned with alcohol prior to use. The coverslip was moisturised with water and affixed to the hemocytometer. The presence of Newton's refraction rings under the coverslip indicated proper adhesion.
The flasks containing the formulations were gently swirled to ensure that the cells were evenly distributed. Before the cells settled to the bottom of the flasks, 0.5 mL of a cell suspension was transferred out to an Eppendorf tube using a 5 mL sterile pipette. Trypan blue (three to five drops) was added to the tube. 100 μL of the Trypan blue-treated cell suspension was pipetted and transferred to the hemocytometer. If a glass hemocytometer was used, both chambers were gently filled underneath the coverslip, allowing the cell suspension to be drawn out by capillary action. If a disposable hemocytometer was used, the cell suspension was pipetted into the well of the counting chamber, allowing capillary action to draw it inside. A microscope was used to focus on the grid lines of the hemocytometer with a 10× objective.

Assay [2] has the same test system. As to the kind of experiment: Cell dry weight of cultured formulations (NACE TM0194-2014). In kind it is cell-based. Conditions: Day 7, ambient temperature, static.
Description: Bacteria were isolated from produced water samples from an oil field (denoted as samples B04S and B24) in accordance with NACE TM0194-2014.
In sample B04S, Bacillus sp., Bacillus thuringiensis and Marine actinomycetes were identified. In sample B24, Bacillus thuringiensis and Marine actinomycetes were identified. Marine actinomycete was identified to be the main species that support biofilm stability and a growth environment for other species including sulphate-reducing bacteria (SRB).
as §1
The formulations in Example 1 were cultured for seven days at ambient temperatures and static conditions in glass vials. Subsequently the cell dry weight of the formulations was quantified in accordance with NACE TM0194-2014. The cell dry weight for each formulation was reported in and/or converted to g/mL for comparison (FIG. 1).

As for `N[C@H](Cc1c[nH]c2ccccc12)C(=O)O` [TT, D-Tryptophan], the “lower cell count as compared to THPS only” value in assay [1] (Day 5, sample B04S) is 77%; in assay [1] (Day 7, sample B04S) it was 78%. In assay [2], the “lower cell dry weight as compared to formulation THPS” value came to 40%.
Consider “tetrakis hydroxymethyl phosphonium sulfate [THPS, reference compound]”, for which the “suppression of bacteria growth” value in assay [1] (100 ppm, Day 7) is “could not suppress bacteria growth”.
